# Assays:
# HLA B*3501 = HLA B*3501 (Homo sapiens, UniProt P01889, A329T/A93T/A95T/C349S/D201E/D98Y/E176V/E187L/E204Q/E69T/I218V/K202T/L119I/Q94N/R155S/R180L/S121R/S35A/S48A/T118I/V127L/V306I/V36M/Y140S/Y91F); assay type: binding
# HLA B*5401 = HLA B*5401 (Homo sapiens, UniProt P01889, A329T/C349S/D138N/D201E/E176V/E187T/E204Q/E69G/I76V/K202T/L119W/R155S/R180L/S121T/S35A/S48A/V127L/V306I/V36M/Y140L); assay type: binding
# H-2 D^b = H-2 D^b (Mus musculus, UniProt P01899); assay type: binding
# H-2 D^d = H-2 D^d (Mus musculus, UniProt P01900); assay type: binding
# Sequence of H-2 D^d (P01900 whole entry, looked up): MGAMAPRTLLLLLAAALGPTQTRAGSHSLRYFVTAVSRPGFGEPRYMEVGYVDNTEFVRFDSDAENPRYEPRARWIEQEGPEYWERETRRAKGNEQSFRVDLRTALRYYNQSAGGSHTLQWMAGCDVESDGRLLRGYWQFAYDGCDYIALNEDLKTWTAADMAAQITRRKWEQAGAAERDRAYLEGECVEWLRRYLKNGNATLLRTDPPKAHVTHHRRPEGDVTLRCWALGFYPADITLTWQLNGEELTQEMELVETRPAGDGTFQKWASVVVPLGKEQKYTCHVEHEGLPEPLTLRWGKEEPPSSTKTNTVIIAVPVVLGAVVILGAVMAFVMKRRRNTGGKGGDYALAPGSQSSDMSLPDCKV
# HLA A*6802 = HLA A*6802 (Homo sapiens, UniProt P04439, A269V/D140Y/D185E/E176V/E277Q/E87N/F33Y/G231S/I121R/I166T/I218V/L180W/L300P/L318F/N151K/P208A/P217A/Q86R/R138H/R169H/S129P/T345S/V36M); assay type: binding
# HLA B*1503 = HLA B*1503 (Homo sapiens, UniProt P01889, A329T/A93T/A95T/C349S/D201E/D98Y/E187L/E204Q/K202T/N87E/Q94N/R155S/R180L/S121R/S35A/V306I/V36M/Y140S/Y91S); assay: biochemical; assay type: binding
# HLA B*0702 = HLA B*0702 (Homo sapiens, UniProt P01889); assay type: binding; settings: positional scanning combinatorial 9-mer library; normalized to 1.0 for the best residue at each position
# H-2 K^k = H-2 K^k (Mus musculus, UniProt P04223); assay type: binding
# Sequence of H-2 K^k (P01887 21-119): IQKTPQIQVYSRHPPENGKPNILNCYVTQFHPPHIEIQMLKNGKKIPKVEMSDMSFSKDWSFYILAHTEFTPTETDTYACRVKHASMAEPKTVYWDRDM
# Sequence of H-2 K^k (P04223 22-369): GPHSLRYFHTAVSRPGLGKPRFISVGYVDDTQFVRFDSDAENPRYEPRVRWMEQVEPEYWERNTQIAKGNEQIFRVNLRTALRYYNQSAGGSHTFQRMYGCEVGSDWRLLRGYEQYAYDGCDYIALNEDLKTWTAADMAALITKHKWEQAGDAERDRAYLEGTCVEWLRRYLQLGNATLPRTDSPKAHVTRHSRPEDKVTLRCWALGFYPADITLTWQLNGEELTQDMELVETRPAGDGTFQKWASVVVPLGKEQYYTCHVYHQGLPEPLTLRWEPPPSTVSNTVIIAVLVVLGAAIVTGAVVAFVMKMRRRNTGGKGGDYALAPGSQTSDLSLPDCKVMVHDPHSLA
# HLA B*5301 = HLA B*5301 (Homo sapiens, UniProt P01889, A329T/A93T/A95T/C349S/D201E/D98Y/E176V/E187L/E204Q/E69T/G107R/I218V/K202T/L105A/L119I/N104I/Q94N/R106L/R155S/R180L/S101N/S121R/S35A/S48A/T118I/V127L/V306I/V36M/Y140S/Y91F); assay type: binding
# HLA A*0201 = HLA A*0201 (Homo sapiens, UniProt P04439, D140Y/D185E/D98H/E176V/E277Q/G131W/G231S/I119V/I121R/I166T/I218V/L300P/L318F/N151K/N90K/P208A/P217A/Q86G/Q94H/R138H/R169H/T345S); settings: positional scanning combinatorial 9-mer library; normalized to 1.0 for the best residue at each position
# HLA A*3001 = HLA A*3001 (Homo sapiens, UniProt P04439, D140H/D185E/E176W/F33S/G80R/H175R/K168Q/R138E/R41S); assay: biochemical; assay type: binding
# HLA B*5802 = HLA B*5802 (Homo sapiens, UniProt P01889, A329T/C349S/D201E/D98Y/E176V/E187L/E204Q/E69T/G107R/I218V/I90N/K202T/L105A/N104I/N87E/Q89R/Q94S/R106L/R155S/R180L/R86G/S101N/S121W/S35A/S48A/V127L/V306I/V36M/Y140S/Y91M); assay type: binding
# HLA B*5801 = HLA B*5801 (Homo sapiens, UniProt P01889, A329T/C349S/D201E/D98Y/E176V/E187L/E204Q/E69T/G107R/I218V/I90N/K202T/L105A/L119I/N104I/N87E/Q89R/Q94S/R106L/R155S/R180L/R86G/S101N/S121R/S35A/S48A/T118I/V127L/V306I/V36M/Y140S/Y91M); assay type: binding
# HLA A*3201 = HLA A*3201 (Homo sapiens, UniProt P04439, A270S/D101S/D185E/E176V/E277Q/F133L/G103R/G107R/G231S/H175R/I121M/I218V/I322F/K168Q/L105A/L300P/L318F/M331R/P208A/P217A/Q94H/R106L/R138Q/S129P/T104I/T323A/T345S/V100E/V321M/V358M); assay: biochemical; assay type: binding
# HLA B*1501 = HLA B*1501 (Homo sapiens, UniProt P01889, A329T/A93T/A95T/C349S/D201E/D98Y/E187L/E204Q/E69M/E70A/K202T/N87E/Q94N/R155S/R180W/S121R/S35A/S48A/V306I/V36M/Y140S/Y91S); assay: biochemical; assay type: binding
# HLA B*5101 = HLA B*5101 (Homo sapiens, UniProt P01889, A329T/A93T/A95T/C349S/D138N/D201E/D98Y/E187L/E204Q/E69T/G107R/I218V/K202T/L105A/L119W/N104I/Q94N/R106L/R155S/R180L/S101N/S121T/S35A/S48A/V306I/V36M/Y195H/Y91F); assay type: binding
# HLA B*0801 = HLA B*0801 (Homo sapiens, UniProt P01889, A93T/A95T/D138N/E176V/E187T/K202T/Q94N/R180D/S35A/V36M/Y33D/Y91F); assay: biochemical; assay type: binding
# HLA B*2705 = HLA B*2705 (Homo sapiens, UniProt P01889, D138H/D201E/E176V/E204Q/G107R/H137Y/K202T/N104T/N87E/Q56L/Q94K/R106L/R155S/R180L/S101D/S121N/S48T/Y140D/Y33H/Y91C); assay type: binding; settings: positional scanning combinatorial 9-mer library; normalized to 1.0 for the best residue at each position
# Sequence of H-2 D^b (P01887 21-119): as the sequence (P01887 21-119) above
# Sequence of H-2 D^b (P01899 25-362): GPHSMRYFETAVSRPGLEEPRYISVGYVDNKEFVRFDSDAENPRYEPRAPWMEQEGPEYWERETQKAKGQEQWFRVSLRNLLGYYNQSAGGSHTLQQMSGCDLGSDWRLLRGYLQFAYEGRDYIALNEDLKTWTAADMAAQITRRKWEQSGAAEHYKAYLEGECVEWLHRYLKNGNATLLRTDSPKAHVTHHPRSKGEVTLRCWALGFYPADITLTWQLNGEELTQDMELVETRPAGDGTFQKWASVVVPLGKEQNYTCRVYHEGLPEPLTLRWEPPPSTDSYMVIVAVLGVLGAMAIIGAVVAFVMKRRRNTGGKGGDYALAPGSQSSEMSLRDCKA
Sequence,"Normalized average relative binding affinity (ARB), HLA B*3501 (HLA B*3501)","Normalized average relative binding affinity (ARB), HLA B*5401 (HLA B*5401)","Normalized average relative binding affinity (ARB), H-2 Db (H-2 D^b)","Normalized average relative binding affinity (ARB), H-2 Dd (H-2 D^d)","Normalized average relative binding affinity (ARB), HLA A*6802 (HLA A*6802)","Normalized average relative binding affinity (ARB), HLA B*1503 (HLA B*1503)","Normalized average relative binding affinity (ARB), HLA B*0702 (HLA B*0702)","Normalized average relative binding affinity (ARB), H-2 Kk (H-2 K^k)","Normalized average relative binding affinity (ARB), HLA B*5301 (HLA B*5301)","Normalized average relative binding affinity (ARB), HLA A*0201 (HLA A*0201)","Normalized average relative binding affinity (ARB), HLA A*3001 (HLA A*3001)","Normalized average relative binding affinity (ARB), HLA B*5802 (HLA B*5802)","Normalized average relative binding affinity (ARB), HLA B*5801 (HLA B*5801)","Normalized average relative binding affinity (ARB), HLA A*3201 (HLA A*3201)","Normalized average relative binding affinity (ARB), HLA B*1501 (HLA B*1501)","Normalized average relative binding affinity (ARB), HLA B*5101 (HLA B*5101)","Normalized average relative binding affinity (ARB), HLA B*0801 (HLA B*0801)","Normalized average relative binding affinity (ARB), HLA B*2705 (HLA B*2705)"
KXXXXXXXX [3064.0009],0.050,0.037,0.14,0.18,0.013,0.46,0.37,0.082,0.0057,0.11,0.49,1.0,1.0,1.0,0.39,0.052,0.039,0.26
LXXXXXXXX [3064.0010],0.31,0.19,0.20,0.29,0.071,0.52,0.23,0.49,0.14,0.054,0.081,0.044,0.53,0.48,0.61,0.41,0.22,0.26
MXXXXXXXX [3064.0011],0.90,1.0,0.18,0.75,0.75,0.40,0.56,0.78,0.26,0.25,0.37,0.21,0.70,0.76,0.89,0.32,0.79,0.44
NXXXXXXXX [3064.0012],0.29,0.12,0.31,0.19,0.24,0.14,0.15,0.80,0.027,0.067,0.065,0.063,0.056,0.13,0.22,0.19,0.43,0.095

# — PMC2248166, “Quantitative peptide binding motifs for 19 human and mouse MHC class I molecules derived using positional scanning combinatorial peptide libraries” (Immunome Research, 2008)
